# Results reported in patent US11364275B2, “Linear lipopeptide paenipeptins and methods of using the same” (priority 2017, dated 2022).
# Read-outs that look alike come from different tables or passages of the source. Where a SMILES comes first, the peptide text is derived from it. [ ]: non-standard residue; d: D form. The star is where a group is joined. ξ: configuration not given here. Thr(3ξ) = CC(O)[C@H](N)C(=O)O; Decanoyl = CCCCCCCCCC(=O)*; Heptanoyl = CCCCCCC(=O)*; Octanoyl = CCCCCCCC(=O)*; Orn = NCCC[C@H](N)C(=O)O; Dab = NCC[C@H](N)C(=O)O; ξDab = NCCC(N)C(=O)O; Bz = O=C(c1ccccc1)*
# Key:
# [1] = tested on: rabbit red blood cells; test: Hemolytic activity; assay type: cell-based; conditions: for Hemolysis: relative to Triton X-100
# Procedure: Hemolytic activity was evaluated using defibrinated rabbit blood in a 96-well plate as described previously. A nonionic surfactant Triton X-100, which is capable of lysing red blood cells (RBCs), was used at 0.1% as a positive control. Briefly, rabbit blood (Hardy Diagnostics, Santa Maria, Calif.) was diluted with phosphate buffered saline (PBS; pH 7.2) at a 1:19 ratio (v/v) and free hemoglobin was removed by washing RBCs and centrifugation four times at 1,000×g at 4° C. for 5 min. Aliquots (50 μL) of washed RBCs were incubated with 150 μL two-fold dilutions of paenipeptin analogues at final concentrations of 16-128 μg/mL at 37° C. for 30 min in a microtiter plate (NBS, Corning Inc.). After incubation, treated RBCs were gently mixed by repeated pipetting. Aliquots (20 μL) of the cell suspension were mixed with 200 μL PBS in a new 96-well plate and centrifuged at 2,204×g for 10 min. The supernatant was transferred to a new 96-well plate for absorbance measurement at 415 nm using a Cell Imaging Multimode Reader (Cytation 3, BioTek; Winooski, Vt.). The percent hemolysis observed after exposure to each paenipeptin analogue was calculated relative to Triton X-100.
# [2] = tested on: Escherichia coli ATCC 25922; assay type: cell-based
# [3] = tested on: methicillin-resistant S. aureus ATCC 43300; assay type: cell-based, Staphylococcus aureus
# Procedure: (§2) The minimum inhibitory concentration (MIC) of paenipeptin analogues was determined using the broth microdilution method (Wirker, M. A. Methods for Dilution Antimicrobial Susceptibility Tests for Bacteria that Grow Aerobically: Approved Standard M07-A8; Clinical and Laboratory Standards Institute, Wayne, Pa., 2009). Seven reference strains (Acinetobacter baumannii ATCC 19606, Escherichia coli ATCC 25922, Klebsiella pneumoniae ATCC 13883, Pseudomonas aeruginosa ATCC 27853, Enterococcus faecium ATCC 19434, Staphylococcus aureus ATCC 29213 and methicillin-resistant S. aureus ATCC 43300) were subjected to MIC testing.
# (§3) Paenipeptin analogues were two-fold diluted in tryptic soy broth (TSB; Becton Dickinson) and mixed with an equal volume of bacterial suspensions in TSB containing approximately 1.5×10^5 colony-forming units (CFU)/mL in a clear UV-sterilized 96-well microtiter plate (NBS, Corning Inc., Corning, N.Y.). […] The microtiter plate was incubated at 37° C. for 18-20 h.
# [4] = tested on: Klebsiella pneumoniae ATCC 13883; assay type: cell-based
# [5] = tested on: Staphylococcus aureus ATCC 29213; assay type: cell-based
# [6] = tested on: Pseudomonas aeruginosa ATCC 27853; assay type: cell-based
# Procedure: as §2, §3
# [7] = tested on: Acinetobacter baumannii ATCC 19606; assay type: cell-based
# [8] = tested on: Klebsiella pneumoniae ATCC 13883; test: MIC of antibiotics with or without paenipeptin analogues (potentiation); assay type: cell-based; conditions: K. pneumoniae ATCC 13883; for Sensitization factor (rifampicin): MIC without / with 4 μg/mL paenipeptin; for MIC of antibiotic at 0 μg/ml paenipeptin analogue: antibiotic alone
# Description: (§1) Gram-negative bacteria, including Acinetobacter and Klebsiella, are intrinsically resistant to the hydrophobic antibiotic rifampicin.
# [9] = tested on: Acinetobacter baumannii ATCC 19606; test: as above; assay type: cell-based; conditions: A. baumannii ATCC 19606; for Sensitization factor (rifampicin): MIC without / with 4 μg/mL paenipeptin; for MIC of antibiotic at 0 μg/ml paenipeptin analogue: antibiotic alone
# Description: as §1
# [10] = tested on: Enterococcus faecium ATCC 19434; assay type: cell-based
SMILES,MIC ([2]; ATCC 25922),MIC ([3]; ATCC 43300),MIC ([4]; ATCC 13883),MIC ([5]; ATCC 29213),MIC ([6]; ATCC 27853),MIC ([7]; ATCC 19606),MIC of rifampicin at 2 μg/mL of paenipeptin analogue [8],MIC of rifampicin at 4 μg/mL of paenipeptin analogue [8],MIC of rifampicin at 4 μg/mL of paenipeptin analogue [9],MIC ([10]; ATCC 19434),MIC of rifampicin at 2 μg/mL of paenipeptin analogue [9],MIC of antibiotic at 0 μg/ml paenipeptin analogue [8],MIC of antibiotic at 0 μg/ml paenipeptin analogue [9],Hemolysis ([1]; 16 μg/mL),Hemolysis ([1]; 32 μg/mL),Hemolysis ([1]; 64 μg/mL),Hemolysis ([1]; 128 μg/mL),Sensitization factor (rifampicin) [8],Sensitization factor (rifampicin) [9],also measured
CCCCCCC(=O)N[C@@H](CCN)C(=O)N[C@H](C(=O)N[C@@H](CCN)C(=O)N[C@H](Cc1ccccc1)C(=O)N[C@@H](CC(C)C)C(=O)N[C@@H](CCN)C(=O)N[C@@H](C(=O)N[C@@H](CC(C)C)C(=O)N[C@@H](CO)C(N)=O)C(C)C)C(C)C [Analogue 2] (Heptanoyl-[Dab]V[Dab][dF]L[Dab][dV]LS-NH2),–,>32 µg/mL,>32 µg/mL,>32 µg/mL,–,>32 µg/mL,0.0156 μg/ml,0.0039 μg/ml,0.0313-0.0625 μg/ml,>32 µg/mL,0.125 μg/ml,–,–,−0.17 ± 0.19%,0.32 ± 0.74%,0.79 ± 0.63%,0.95 ± 0.45%,"4,096",256-512,–
"CN[C@H](CC(C)C)C(=O)N[C@H]1C(=O)N[C@@H](CC(N)=O)C(=O)N[C@H]2C(=O)N[C@H]3C(=O)N[C@H](C(=O)N[C@H](C(=O)O)c4cc(O)cc(O)c4-c4cc3ccc4O)[C@H](O)c3ccc(c(Cl)c3)Oc3cc2cc(c3O[C@@H]2O[C@H](CO)[C@@H](O)[C@H](O)[C@H]2O[C@H]2C[C@](C)(N)[C@H](O)[C@H](C)O2)Oc2ccc(cc2Cl)[C@H]1O [Vancomycin, vancomycin, reference compound]",–,–,–,–,–,–,–,–,–,–,–,>32 μg/ml,>32 μg/ml,–,–,–,–,–,–,–
CCCCCCC(=O)N[C@@H](CCN)C(=O)N[C@@H](Cc1ccccc1)C(=O)N[C@@H](CCN)C(=O)N[C@H](Cc1ccccc1)C(=O)N[C@@H](CC(C)C)C(=O)N[C@@H](CCN)C(=O)N[C@@H](C(=O)N[C@@H](CC(C)C)C(=O)N[C@@H](CO)C(N)=O)C(C)C [Analogue 4] (Heptanoyl-[Dab]F[Dab][dF]L[Dab][dV]LS-NH2),1 to 4 µg/mL,–,–,≥32 µg/mL,2 to 4 µg/mL,–,–,–,–,>32 µg/mL,–,–,–,0.28 ± 1.11%,0.49 ± 1.22%,0.60 ± 1.35%,1.28 ± 1.65%,–,–,–
CCCCCCC(=O)N[C@@H](CCN)C(=O)N[C@H](C(=O)N[C@@H](CCN)C(=O)N[C@H](Cc1ccccc1)C(=O)N[C@@H](CC(C)C)C(=O)N[C@@H](CCN)C(=O)N[C@@H](C(=O)N[C@@H](CC(C)C)C(=O)N[C@@H](CO)C(N)=O)C(C)C)[C@@H](C)CC [Analogue 3] (Heptanoyl-[Dab]I[Dab][dF]L[Dab][dV]LS-NH2),–,>32 µg/mL,–,>32 µg/mL,–,>32 µg/mL,0.0039 μg/ml,<0.00098-0.00195 μg/ml,–,>32 µg/mL,0.0078 μg/ml,–,–,0.18 ± 0.54%,0.78 ± 0.30%,1.18 ± 0.68%,1.77 ± 0.81%,–,"4,096",hemolytic activity (in words) ([1]; 128 μg/mL): little hemolysis
CC[C@H](C)[C@H](NC(=O)[C@H](CCN)NC(=O)c1ccccc1)C(=O)N[C@@H](CCN)C(=O)N[C@H](Cc1ccccc1)C(=O)N[C@@H](CC(C)C)C(=O)N[C@@H](CCN)C(=O)N[C@@H](C(=O)N[C@@H](CC(C)C)C(=O)N[C@@H](CO)C(N)=O)C(C)C [Analogue 14] (Bz-[Dab]I[Dab][dF]L[Dab][dV]LS-NH2),–,–,–,–,–,–,0.0078 μg/ml,0.00195-0.0039 μg/ml,–,–,0.03125 μg/ml,–,–,0.22 ± 0.17%,0.71 ± 0.82%,1.14 ± 1.05%,0.70 ± 0.34%,"4,096-8,192","2,048-4,096","MIC ([2]; E. coli ATCC 25922, TSB): 16 to 32 µg/mL; MIC ([3]; S. aureus ATCC 43300, TSB): >32 µg/mL; MIC ([4]; K. pneumoniae ATCC 13883, TSB): >32 µg/mL; MIC ([5]; S. aureus ATCC 29213, TSB): >32 µg/mL; MIC ([6]; P. aeruginosa ATCC 27853, TSB): 8 to 32 µg/mL; MIC ([7]; A. baumannii ATCC 19606, TSB): >32 µg/mL; MIC ([10]; E. faecium ATCC 19434, TSB): >32 µg/mL"
"CC1(C)S[C@@H]2[C@H](NC(=O)[C@H](N)c3ccccc3)C(=O)N2[C@H]1C(=O)O [Ampicillin, ampicillin, reference compound]",–,–,–,–,–,–,–,–,–,–,–,32 μg/ml,>32 μg/ml,–,–,–,–,–,–,–

# Further lines, with some results ahead:
MIC ([2]; ATCC 25922),MIC ([3]; ATCC 43300),MIC ([4]; ATCC 13883),MIC ([5]; ATCC 29213),MIC ([6]; ATCC 27853),MIC ([7]; ATCC 19606),MIC of rifampicin at 2 μg/mL of paenipeptin analogue [8],MIC of rifampicin at 4 μg/mL of paenipeptin analogue [8],MIC of rifampicin at 4 μg/mL of paenipeptin analogue [9],MIC ([10]; ATCC 19434),MIC of rifampicin at 2 μg/mL of paenipeptin analogue [9],MIC of antibiotic at 0 μg/ml paenipeptin analogue [8],MIC of antibiotic at 0 μg/ml paenipeptin analogue [9],SMILES,Hemolysis ([1]; 16 μg/mL),Hemolysis ([1]; 32 μg/mL),Hemolysis ([1]; 64 μg/mL),Hemolysis ([1]; 128 μg/mL),Sensitization factor (rifampicin) [8],Sensitization factor (rifampicin) [9],also measured
>32 µg/mL,>32 µg/mL,>32 µg/mL,≥32 µg/mL,16 to 32 µg/mL,>32 µg/mL,0.0625-0.125 μg/ml,0.0625 μg/ml,0.0313-0.0625 μg/ml,>32 µg/mL,–,–,–,CCCCCCCC(=O)N[C@@H](CCN)C(=O)NC(CCN)C(=O)N[C@@H](CCN)C(=O)N[C@H](Cc1ccccc1)C(=O)N[C@@H](CC(C)C)C(=O)N[C@@H](CCN)C(=O)N[C@@H](C(=O)N[C@@H](CC(C)C)C(=O)N[C@@H](CCN)C(N)=O)C(C)C (some centres unmarked) [Analogue 10] (Octanoyl-[Dab][ξDab][Dab][dF]L[Dab][dV]L[Dab]-NH2),0.37 ± 0.62%,0.38 ± 0.62%,0.41 ± 0.53%,0.80 ± 0.40%,256,256-512,–
–,–,>32 µg/mL,>32 µg/mL,–,–,–,0.0078-0.0156 μg/ml,0.0156-0.0313 μg/ml,>32 µg/mL,0.0625 μg/ml,–,–,CCCCCCCC(=O)N[C@@H](CCCN)C(=O)N[C@H](C(=O)N[C@@H](CCCN)C(=O)N[C@H](Cc1ccccc1)C(=O)N[C@@H](CC(C)C)C(=O)N[C@@H](CCCN)C(=O)N[C@@H](C(=O)N[C@@H](CC(C)C)C(=O)N[C@@H](CO)C(N)=O)C(C)C)[C@@H](C)CC [Analogue 11] (Octanoyl-[Orn]I[Orn][dF]L[Orn][dV]LS-NH2),0.86 ± 0.72%,0.44 ± 0.30%,0.69 ± 0.64%,1.12 ± 0.47%,"1,024-2,048","512-1,024",–
>32 µg/mL,>32 µg/mL,>32 µg/mL,>32 µg/mL,>32 µg/mL,>32 µg/mL,>0.125 μg/ml,>2 μg/ml,>0.125 μg/ml,≥32 µg/mL,>0.125 μg/ml,–,–,CCCCCCCCCC(=O)N[C@@H](CCN)C(=O)N[C@H](C(=O)N[C@H](C(=O)N[C@H](CC(C)C)C(=O)N[C@@H](CC(C)C)C(=O)N[C@@H](CCN)C(=O)N[C@@H](C(=O)N[C@@H](CC(C)C)C(=O)N[C@@H](CO)C(N)=O)C(C)C)C(C)O)[C@@H](C)CC (stereo partly drawn) [Analogue 13] (Decanoyl-[Dab]I[Thr(3ξ)][dL]L[Dab][dV]LS-NH2),1.25 ± 0.71%,5.06 ± 1.14%,10.0 ± 1.03%,24.9 ± 2.71%,–,–,–
–,–,–,–,–,–,–,–,–,–,–,>32 μg/ml,32 μg/ml,"CC[C@H]1OC(=O)[C@H](C)[C@@H](O[C@H]2C[C@@](C)(OC)[C@@H](O)[C@H](C)O2)[C@H](C)[C@@H](O[C@@H]2O[C@H](C)C[C@H](N(C)C)[C@H]2O)[C@](C)(O)C[C@@H](C)C(=O)[C@H](C)[C@@H](O)[C@]1(C)O [Erythromycin, erythromycin, reference compound]",–,–,–,–,–,–,–
